Common to all, as to format: binding
One assay deals with T1, KRAS G12D (Homo sapiens, UniProt P01116, G12D).
T1 construct: made in house; host or cells: E. coli, e.g. BL21 (DE3)
The assay is described as follows: HTRF assay, interaction of KRAS G12D with SOS1. The settings on record: Ras::SOS1 interaction, read-out: Inhibition of KRAS G12D (IC50). An excerpt:
(§1) This assay can be also used to assess a selective inhibition or reduction of signaling output of a mutant Ras protein relative to a wildtype, or relative to a different mutant Ras protein. For example, the equilibrium interaction of wildtype Kras or K-Ras mutant (e.g., wildtype or a mutant thereof) with SOS1 (e.g., hSOS1) can be assessed as a proxy or an indication for a subject compound's ability to bind and inhibit Ras protein. The HTRF assay detects from (i) a fluorescence resonance energy transfer (FRET) donor (e.g., antiGST-Europium) that is bound to GST-tagged K-Ras mutant to (ii) a FRET acceptor (e.g., anti-6His-XL665) bound to a His-tagged hSOS1.
(§2) The assay buffer can contain ˜5 mM HEPES pH 7.4, ˜150 mM NaCl, ˜ 1 mM DTT, 0.05% BSA and 0.0025% (v/v) Igepal. A Ras working solution is prepared in an assay buffer containing typically a suitable amount of the protein construct (e.g., GST-tagged K-Ras mutant) and the FRET donor (e.g., antiGST-Eu(K) from Cisbio, France). A SOS1 working solution is prepared in an assay buffer containing suitable amount of the protein construct (e.g., His-hSOS1) and the FRET acceptor (e.g., anti-6His-XL665 from Cisbio, France). A suitable amount of the protein construct will depend on the range of activity or range of IC50 values being detected or under investigation. For detecting an IC50 within a range of 500 nM, the protein constructs of the same range of molarity can be utilized.
(§3) A fixed volume of DMSO with or without test compound is transferred into a 384-well plate. Ras working solution is added to all wells of the test plate. SOS1 working solution is added to all wells except for those that are subsequently filled with inhibitor control solution. Upon incubation for about 10 minutes or longer, the fluorescence is measured with a M1000Pro plate reader (Tecan) using HTRF detection (excitation 337 nm, emission 1: 620 nm, emission 2: 665 nm). Compounds are tested in duplicate at different concentrations (for example, 10 μM, 2.5 μM, 0.63 μM, 0.16 μM, 0.04 μM, 0.01 μM test compound). The ratiometric data (i.e., emission 2 divided by emission 1) is used to calculate IC50 values against Ras using GraphPad Prism (GraphPad software). Signaling output measured in terms of IC50 values can be obtained and a ratio of IC50 against one mutant relative to another mutant can be calculated. For instance, a selective reduction of K-Ras G12D signaling output can be evidenced by a ratio greater than one. In particular, a selective reduction of K-Ras G12D signaling relative to K-Ras WT signaling is evidenced if the ratio of IC50 (against K-Ras WT) to IC50 (against K-Ras G12D) is greater than 1.
On the technique in general: In TR-FRET formats the signal depends on donor and acceptor labels being close together.

A further assay addresses T2, wildtype KRAS (Homo sapiens, UniProt P01116).
T2 construct: made in house; host or cells: E. coli, e.g. BL21 (DE3)
The assay is described as follows: HTRF assay, interaction of wildtype KRAS with SOS1. The settings on record: Ras::SOS1 interaction, read-out: Inhibition of KRAS WT (IC50).
Text: as §1, §2, §3

The target of the next assay is T3, KRAS G12V (Homo sapiens, UniProt P01116, G12V).
T3 construct: made in house; host or cells: E. coli, e.g. BL21 (DE3)
T3 sequence (P01116 1-188 isoform P01116-2 G12V): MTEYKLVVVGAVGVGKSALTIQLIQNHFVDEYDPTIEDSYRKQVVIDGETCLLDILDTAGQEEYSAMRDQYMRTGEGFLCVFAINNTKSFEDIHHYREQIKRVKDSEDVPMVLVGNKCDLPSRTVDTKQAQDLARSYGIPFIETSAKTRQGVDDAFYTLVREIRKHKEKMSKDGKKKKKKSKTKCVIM
The assay is described as follows: HTRF assay, interaction of KRAS G12V with SOS1. To be noted: Ras::SOS1 interaction, read-out: Inhibition of KRAS G12V (IC50).
Text: as §1, §2, §3

As a reminder, the IC50 is the midpoint of a concentration-inhibition curve.

T2 sequence (P01116 1-188 isoform P01116-2): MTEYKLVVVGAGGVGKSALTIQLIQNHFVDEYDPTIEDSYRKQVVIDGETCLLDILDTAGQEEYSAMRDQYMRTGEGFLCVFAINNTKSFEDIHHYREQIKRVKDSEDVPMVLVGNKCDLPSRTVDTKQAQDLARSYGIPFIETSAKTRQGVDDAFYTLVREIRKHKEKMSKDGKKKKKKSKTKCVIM
T1 sequence (P01116 1-188 isoform P01116-2 G12D): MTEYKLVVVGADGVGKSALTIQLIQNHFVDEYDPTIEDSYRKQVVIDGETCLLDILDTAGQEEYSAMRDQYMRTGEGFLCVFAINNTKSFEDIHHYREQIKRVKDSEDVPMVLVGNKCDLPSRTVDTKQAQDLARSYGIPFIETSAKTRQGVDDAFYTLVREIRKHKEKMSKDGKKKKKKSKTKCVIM

As for `CN(C)CC1CC=CCCN2c3nc(nc4c(F)c(-c5ccc(F)c6sc(N)c(C#N)c56)c(Cl)c(c34)OC[C@@H]2C(F)F)O1` (mixture of isomers) [Compound 107, 2-amino-4-((11R)-14-chloro-11-(difluoromethyl)-4-((dimethylamino)methyl)-16-fluoro-4,5,8,9,11,12-hexahydro-2,17-(azeno)benzo[6,7][1,4]oxazepino[5,4-d][1]oxa[3,5]diazacycloundecin-15-yl)-7-fluorobenzo[b]thiophene-3-carbonitrile], the IC50 at KRAS G12D and on wildtype KRAS was not above 5 µM each time.
Consider `C[C@H]1COc2c(Cl)c(-c3ccc(F)c4sc(N)c(C#N)c34)c(F)c3nc4nc(c23)N1CCC=CCC(CN(C)C)O4` (mixture of isomers) [Compound 150, 2-amino-4-((11S)-14-chloro-4-((dimethylamino)methyl)-16-fluoro-11-methyl-4,5,8,9,11,12-hexahydro-2,17-(azeno)benzo[6,7][1,4]oxazepino[5,4-d][1]oxa[3,5]diazacycloundecin-15-yl)-7-fluorobenzo[b]thiophene-3-carbonitrile], for which the IC50 on KRAS G12D, on wildtype KRAS and on KRAS G12V was not above 5 µM throughout.
Turning to `C[C@H]1COc2c(Cl)c(-c3ccc(F)c4sc(N)c(C#N)c34)c(F)c3nc4nc(c23)N1CCC=CCC(CN(C)C)O4` (single isomer, unassigned) [Compound 103], the IC50 on KRAS G12D, on wildtype KRAS and at KRAS G12V was not above 5 µM in each case.
On to `CN1C[C@@H]2C[C@H]1COc1nc3c4c(c(Cl)c(-c5ccc(F)c6sc(N)c(C#N)c56)c(F)c4n1)OCCN3CCCO2` (single isomer, unassigned) [Compound 135], for which the IC50 on KRAS G12D, at wildtype KRAS and on KRAS G12V was not above 5 µM throughout.
As to `CN(C)CCC1CC=CCCN2CCOc3c(Cl)c(-c4ccc(F)c5sc(N)c(C#N)c45)c(F)c4nc(nc2c34)O1` (single isomer, unassigned) [Compound 148, 2-amino-4-(14-chloro-4-(2-(dimethylamino)ethyl)-16-fluoro-4,5,8,9,11,12-hexahydro-2,17-(azeno)benzo[6,7][1,4]oxazepino[5,4-d][1]oxa[3,5]diazacycloundecin-15-yl)-7-fluorobenzo[b]thiophene-3-carbonitrile], the IC50 on KRAS G12D, on wildtype KRAS and at KRAS G12V was not above 5 µM in each case.
Consider `CN(C)CC1CC/C=C/CCN2CCOc3c(Cl)c(-c4ccc(F)c5sc(N)c(C#N)c45)c(F)c4nc(nc2c34)O1` (stereo not shown) [Compound 101, (E)-2-amino-4-(15-chloro-4-((dimethylamino)methyl)-17-fluoro-5,6,9,10,12,13-hexahydro-4H-2,18-(azeno)benzo[6,7][1,4]oxazepino[5,4-d][1]oxa[3,5]diazacyclododecin-16-yl)-7-fluorobenzo[b]thiophene-3-carbonitrile], for which the IC50 at KRAS G12D, at wildtype KRAS and at KRAS G12V was not above 5 µM in each case.
`CN(C)[C@@H]1CNC(=O)CCN2CCOc3c(Cl)c(-c4ccc(F)c5sc(N)c(C#N)c45)c(F)c4nc(nc2c34)OC1` [Compound 104, 2-amino-4-((5R)-15-chloro-5-(dimethylamino)-17-fluoro-8-oxo-5,6,7,8,9,10,12,13-octahydro-4H-2,18-(azeno)benzo[6,7][1,4]oxazepino[5,4-d][1]oxa[3,5,9]triazacyclododecin-16-yl)-7-fluorobenzo[b]thiophene-3-carbonitrile]: the IC50 at KRAS G12D, at wildtype KRAS and on KRAS G12V was not above 5 µM each time.
For `CN(C)CC1/C=C/CCN2CCOc3c(Cl)c(-c4ccc(F)c5sc(N)c(C#N)c45)c(F)c4nc(nc2c34)OC1` (stereo not shown) [Compound 110, (E)-2-amino-4-(14-chloro-5-((dimethylamino)methyl)-16-fluoro-4,5,8,9,11,12-hexahydro-2,17-(azeno)benzo[6,7][1,4]oxazepino[5,4-d][1]oxa[3,5]diazacycloundecin-15-yl)-7-fluorobenzo[b]thiophene-3-carbonitrile], the concentration for half-maximal inhibition (IC50) on KRAS G12D, on wildtype KRAS and at KRAS G12V was not above 5 µM in each case.
For `N#Cc1c(N)sc2c(F)ccc(-c3c(Cl)c4c5c6nc(nc5c3F)OCCNC(=O)CCN6CCO4)c12` [Compound 112, 2-amino-4-(14-chloro-16-fluoro-7-oxo-4,5,6,7,8,9,11,12-octahydro-2,17-(azeno)benzo[6,7][1,4]oxazepino[5,4-d][1]oxa[3,5,9]triazacycloundecin-15-yl)-7-fluorobenzo[b]thiophene-3-carbonitrile], the IC50 at KRAS G12D, on wildtype KRAS and on KRAS G12V was not above 5 µM throughout.
Take `CN1CCCCOc2nc3c4c(c(Cl)c(-c5ccc(F)c6sc(N)c(C#N)c56)c(F)c4n2)OCCN3CCCC1` [Compound 113, 2-amino-4-(17-chloro-19-fluoro-8-methyl-5,6,7,8,9,10,11,12,14,15-decahydro-4H-2,20-(azeno)benzo[6,7][1,4]oxazepino[5,4-d][1]oxa[3,5,10]triazacyclotetradecin-18-yl)-7-fluorobenzo[b]thiophene-3-carbonitrile]: the IC50 at KRAS G12V is not above 5 µM.
Turning to `CN(C)CC1CC=CCCN2c3nc(nc4c(F)c(-c5ccc(F)c6sc(N)c(C#N)c56)c(Cl)c(c34)OC[C@@H]2C(F)F)O1` (stereo partly drawn) [Compound 115, 2-amino-4-((11R)-14-chloro-11-(difluoromethyl)-4-((dimethylamino)methyl)-16-fluoro-4,5,8,9,11,12-hexahydro-2,17-(azeno)benzo[6,7][1,4]oxazepino[5,4-d][1]oxa[3,5]diazacycloundecin-15-y1)-7-fluorobenzo[b]thiophene-3-carbonitrile], the IC50 on KRAS G12V was not above 5 µM.
Regarding `CN(C)CC1CC=CCCN2CCOc3c(Cl)c(-c4ccc(F)c5sc(N)c(C#N)c45)c(F)c4nc(nc2c34)O1` (stereo not shown) [Compound 116, 2-amino-4-(14-chloro-4-((dimethylamino)methyl)-16-fluoro-4,5,8,9,11,12-hexahydro-2,17-(azeno)benzo[6,7][1,4]oxazepino[5,4-d][1]oxa[3,5]diazacycloundecin-15-yl)-7-fluorobenzo[b]thiophene-3-carbonitrile], the IC50 at KRAS G12D, on wildtype KRAS and on KRAS G12V was not above 5 µM in each case.
As to `CN(C)CC1CCCCCCN2CCOc3c(Cl)c(-c4ccc(F)c5sc(N)c(C#N)c45)c(F)c4nc(nc2c34)O1` (stereo not shown) [Compound 117, 2-amino-4-(15-chloro-4-((dimethylamino)methyl)-17-fluoro-5,6,7,8,9,10,12,13-octahydro-4H-2,18-(azeno)benzo[6,7][1,4]oxazepino[5,4-d][1]oxa[3,5]diazacyclododecin-16-yl)-7-fluorobenzo[b]thiophene-3-carbonitrile], the IC50 at KRAS G12D, at wildtype KRAS and at KRAS G12V was not above 5 µM each time.
`CN(C)C[C@H]1CCNC(=O)CCN2CCOc3c(Cl)c(-c4ccc(F)c5sc(N)c(C#N)c45)c(F)c4nc(nc2c34)O1` [Compound 123, 2-amino-4-((4R)-15-chloro-4-((dimethylamino)methyl)-17-fluoro-8-oxo-5,6,7,8,9,10,12,13-octahydro-4H-2,18-(azeno)benzo[6,7][1,4]oxazepino[5,4-d][1]oxa[3,5,9]triazacyclododecin-16-yl)-7-fluorobenzo[b]thiophene-3-carbonitrile]: the IC50 on KRAS G12D, at wildtype KRAS and on KRAS G12V was not above 5 µM throughout.
